pIC50: −log10 of the molar value.
Each compound was assayed on Aβ production in 293 751 SWE and CHO 751 SWE cells (transfected with APP-751 Swedish mutation) (assay: Aβ production inhibition activity in cells (Aβ ELISA of conditioned media, normalized for cytotoxicity by MTT)). Settings: 2.5 μg/ml.
Format: cell-based
Method: Two cell lines (human kidney cell line 293 and Chinese hamster ovary cell line CHO) were stably transfected with the gene for APP-751 containing the double mutation Lys651 -Met652 to Asn651 -Leu652 (APP-751 numbering) commonly called the Swedish mutation using the method described in Citron et al., (1992) Nature 360:672-674. The transfected cell lines were designated as 293 751 SWE and CHO 751 SWE, and were plated in Corning 96 well plates at 2.5×10^4 or 1×10^4 cells per well respectively in Dulbecco's minimal essential media plus 10% fetal bovine serum. Following overnight incubation at 37° C. in an incubator equilibrated with 10% carbon dioxide (CO2), the media were removed and replaced with 200 μL per well of media containing a test compound. After a two hour pretreatment period, the media were again removed and replaced with fresh media containing the test compound and the cells were incubated for an additional two hours.
Test compound stocks were prepared in DMSO such that at the final concentration used in the treatment, the concentration of DMSO did no exceed 0.5%. After treatment, plates were centrifuged in a Beckman GPR at 1200 rpm for five minutes at room temperature to pellet cellular debris from the conditioned media. From each well, 100 μL of conditioned media were transferred into an ELISA plate precoated with antibody 266 against βAP-13-28 (Seubert et al., supra.) and stored at 4° C. overnight. An ELISA assay employing labeled antibody 6C6 (against βAP-1-16) was run the next day to measure the amount of Aβ produced.
Cytotoxic effects of the test compounds were measured by a modification of the method of Hansen et al., (1989) J. Immun. Meth. 119:203-210. To the cells remaining in the tissue culture plate, was added 25 μL of a 3, (4,5-dimethylthiazol-2-yl)2,5-diphenyltetrazolium bromide (MTT) stock solution (5 mg/mL) to a final concentration of […]. Cells were incubated at 37° C. for one hour, and cellular activity was stopped by the addition of an equal volume of MTT lysis buffer (20% w/v sodium dodecylsulfate in 50% DMF, pH 4.7). Complete extraction was achieved by overnight shaking at room temperature. The difference in the OD562 nm and the OD650 nm was measured in a Molecular Devices UVmax microplate reader as an indicator of the cellular viability.
The results of the Aβ ELISA were fit to a standard curve and expressed as ng/mL Aβ peptide. In order to normalize for cytotoxicity, these Aβ results were divided by the MTT results and expressed as a percentage of the results from a drug -free control.
The test compounds were assayed for Aβ production inhibition activity in cells at […] using the test. The results presented in Table 1 are the mean and standard deviation of at least six replicate assays. IC50 means the concentration of test compound in micromoles/liter required to inhibit Aβ production by 50%.

SMILES | Aβ Production Inhibition Activity, % inhibition @ 2.5 μg/ml
CC1(C)CC(C(=O)Nc2ccc(Cl)c(Cl)c2)CC(C)(C)N1 [Compound 231] | 40-51%

Same assay, conditions: 5 μg/ml

SMILES | inhibition at 5 µg/mL [%]
CCCCc1ccc(COc2ccc(CN(O)C(=S)NCc3ccccc3)cc2)cc1 [Compound 62] | 17
CC(c1cccc(NC(=O)c2ccc(C(C)(C)C)cc2)c1)N(O)C(=S)NCc1ccccc1 (stereo not shown) [Compound 99] | 43
CC(C)(C)c1ccc(COc2ccc(CN(O)C(=S)NCc3ccccc3)cc2)cc1 [Compound 52] | 22
CCCCCCNC(=S)N(O)Cc1ccc(OCc2ccc(CCCC)cc2)cc1 [Compound 63] | 9
CCCCCCNC(=S)N(O)Cc1cccc(OCc2ccc(C(C)(C)C)cc2)c1 [Compound 50] | 25

Same assay, conditions: 10 μg/ml, % of drug-free control, normalized to MTT

SMILES | inhibition at 10 µg/mL [%] | Aβ Production Inhibition Activity, % inhibition at 10 μg/ml [%]
CCCCCCNC(=S)N(O)C(CCCCCC)c1cccc(Oc2ccc(C(C)(C)C)cc2)c1 (stereo not shown) [Compound 37] | 0 | –
Cc1cccc(CNC(=S)N(O)Cc2ccc(-c3ccc(C(C)(C)C)cc3)cc2)c1 [Compound 82] | 30 | –
CN(Cc1cccc(Oc2ccc(C(C)(C)C)cc2)c1)C(=S)NCc1ccc(Cl)c(Cl)c1 [Compound 44] | 40 | –
CSc1ccc(NC(=O)Nc2cc(Cl)c(Cl)cc2C)cc1 [Compound 160] | 48 | –
CC(c1cccc(Oc2ccc(C(C)(C)C)cc2)c1)N(O)C(=O)NCc1ccccc1 (stereo not shown) [Compound 46] | 68 | –
CC(NC(=S)NCc1ccccc1)c1cccc(Oc2ccccc2)c1 (stereo not shown) [Compound 47] | 8 | –
CSc1cccc(NC(=O)Nc2nnc(C)s2)c1 [Compound 252] | 25 | –
CCCCCCNC(=S)N(Cc1cccc(Oc2ccc(C(C)(C)C)cc2)c1)OC [Compound 43] | 16 | –
CNC(=O)N(C)c1nnc(Br)s1 [Compound 254] | 11 | –
CCCc1cc(C(C)(C)C)ccc1Oc1ccc(NC(=S)Nc2ccc(C)c(C)c2)cc1 [Compound 196] | 44 | –
CC(C)(C)c1ccc(S(=O)(=O)c2cccc(CN(O)C(=S)NCc3ccccc3)c2)cc1 [Compound 92] | 25 | –
CS(=O)(=O)c1ccc(NC(=O)Nc2ccc(Cl)cc2)cc1 [Compound 161] | 40 | –
COc1ccc(NC(=O)Nc2ccc(Cl)c(Cl)c2)c(OC)c1 [Compound 144] | 41 | –
O=C(Nc1ccc(Cl)c(Cl)c1)c1ccccn1 [Compound 227] | – | 32
CCN1CCCC(C(=O)Nc2ccc(Cl)c(Cl)c2)C1 (stereo not shown) [Compound 230] | – | 28
Cc1ccc(CNC(=S)N(O)C(C)c2cccc(Oc3ccc(C(C)(C)C)cc3)c2)cc1C (stereo not shown) [Compound 9] | 62 | –
CCCCCCNC(=S)Nc1ccc(C(=O)c2ccccc2)c(O)c1CCC [Compound 202] | 42 | –
CCCc1cc(C(C)(C)C)ccc1Oc1ccc(NC(=S)NCc2cccc(C)c2)cc1 [Compound 194] | 31 | –
CCCCCCNC(=S)N(O)Cc1ccc(-c2ccc(C(C)(C)C)cc2)cc1 [Compound 80] | 11 | –
ON(Cc1ccc(OCc2c(Cl)cccc2Cl)cc1)C(=S)NCc1ccccc1 [Compound 64] | 18 | –
COC(=O)c1ccc(NC(=O)Nc2ccc(Cl)c(C(F)(F)F)c2)cc1OC [Compound 165] | 42 | –
O=C(Nc1ccccc1)Nc1nncs1 [Compound 255] | 1 | –
CCCCCCNC(=S)Nc1ccccc1Oc1ccc(C(C)(C)C)cc1 [Compound 185] | 21 | –
O=C(Nc1ccc(Cl)cc1)Nc1nncs1 [Compound 256] | 42 | –
CCCCCCNC(=S)N(O)Cc1cccc(OCc2ccc(C(=O)CC)c(O)c2CCC)c1 [Compound 70] | 37 | –
Cc1cccc(CNC(=S)N(O)Cc2ccc(OCc3c(Cl)cccc3Cl)cc2)c1 [Compound 65] | 7 | –

Same assay, conditions: 2 h pretreatment + 2 h incubation

SMILES | pIC50
CC(C)(C)c1ccccc1Oc1ccc(NC(=S)Nc2ccccc2C(F)(F)F)cc1 [Compound 190] | 4.86
O=C(Nc1ccc(Sc2ccc(Cl)c(Cl)c2)cc1)Nc1ccc(Cl)c(Cl)c1 [Compound 145] | 5.21
CCCCc1ccc(Oc2cccc(C(C)N(O)C(=S)NCc3ccccc3)c2)cc1 (stereo not shown) [Compound 45] | 5.04
CC(c1cccc(Oc2ccc(C(C)(C)C)cc2)c1)N(O)C(=S)NCc1cccc(Cl)c1 (stereo not shown) [Compound 16] | 4.92
COc1c(C(C)(C)C)cc(COc2ccc(CN(O)C(=S)NCc3ccccc3)cc2)cc1C(C)(C)C [Compound 73] | 5.23
CC(C)(C)c1ccc(Oc2ccc(NC(=S)NC3CCCCC3)cc2)cc1 [Compound 119] | 4.82
CCCc1cc(C(C)(C)C)ccc1Oc1ccc(NC(=S)Nc2cccc(C(F)(F)F)c2)cc1 [Compound 195] | 4.96
COC(=O)c1sc2ccccc2c1C(=O)Nc1ccc(Cl)c(Cl)c1 [Compound 233] | 4.82
CC(C)(C)c1ccc(Oc2ccc(NC(=S)NCc3cccc(Br)c3)cc2)cc1 [Compound 107] | 5.14
CCCCCCNC(=S)N(O)Cc1ccccc1Oc1ccc(C(C)(C)C)cc1 [Compound 182] | 4.47
Cc1ccc(CNC(=S)N(O)C(C)c2cccc(Oc3ccc(C(C)(C)C)cc3)c2)cc1 (stereo not shown) [Compound 7] | 4.81
CC(C)(C)c1ccc(Oc2ccc(NC(=S)NCc3ccncc3)cc2)cc1 [Compound 122] | 4.63
CC(C)(C)c1ccc(Oc2ccc(NC(=S)NCc3ccc(F)c(F)c3)cc2)cc1 [Compound 129] | 5.35
CC(C)(C)c1ccc(Oc2ccccc2CN(O)C(=S)NCc2ccccc2)cc1 [Compound 180] | 4.94
CC(C)(C)c1ccc(Oc2ccc(NC(=S)NCc3ccc(F)c(Cl)c3)cc2)cc1 [Compound 131] | 5.30
CC(C)(C)c1ccc(Oc2ccc(NC(=S)NCC3CCCCN3)cc2)cc1 (stereo not shown) [Compound 126] | 5.15
CC(C)(C)c1ccc(Oc2ccccc2NC(=S)Nc2ccc(Cl)c(C(F)(F)F)c2)cc1 [Compound 170] | 5.36
S=C(Nc1ccc(Cl)c(Cl)c1)Nc1ccc(Cl)c(Cl)c1 [Compound 153] | 5.77

SMILES | pIC50
CCCCCCNC(=S)N(O)C(C)c1cccc(Oc2ccc(C(C)(C)C)cc2)c1 (stereo not shown) [Compound 19] | 4.96
Cc1ccc(CNC(=S)N(O)C(C)c2cccc(Oc3ccc(C(C)(C)C)cc3)c2)cc1Cl (stereo not shown) [Compound 8] | 5.05
CC(c1cccc(Oc2ccc(C(C)(C)C)cc2)c1)N(O)C(=S)NCc1ccc(Cl)cc1Cl (stereo not shown) [Compound 17] | 5.24
CC(C)(C)c1ccc(Oc2ccc(NC(=S)NCc3ccccc3)cc2)cc1 [Compound 115] | 4.79
O=C(Nc1ccc(Cl)c(Cl)c1)Nc1nncs1 [Compound 235, 1-1,3,4-thiadiazol-2-yl-3-(3,4-dichlorophenyl)urea] | 5.00
O=C(Nc1ccc(Cl)c(Cl)c1)c1nccs1 [Compound 243] | 4.71
CCCCCCNC(=S)N(O)C(C)c1cccc(NC(=O)c2ccc(C(C)(C)C)cc2)c1 (stereo not shown) [Compound 98] | 4.89
CC(C)(C)c1cccc(Oc2ccc(NC(=S)Nc3cccc(C(F)(F)F)c3)cc2)c1 [Compound 176] | 5.34
CC(C)(C)c1ccc(Oc2cccc(NC(=S)NCc3ccccc3)c2)cc1 [Compound 186] | 5.05
CCCCOc1ccc(NC(=S)N(O)C(CC)c2cccc(Oc3ccc(C(C)(C)C)cc3)c2)cc1 (stereo not shown) [Compound 25] | 4.80
CC(C)(C)c1ccc(Oc2ccc(NC(=S)NCc3nnc(C(F)(F)F)s3)cc2)cc1 [Compound 134] | 4.99
CC(C)(C)c1ccc(Oc2ccc(NC(=S)NCc3ccc(F)cc3Cl)cc2)cc1 [Compound 130] | 5.14
CCC(c1cccc(Oc2ccc(C(C)(C)C)cc2)c1)N(O)C(=S)NCc1ccccc1 (stereo not shown) [Compound 20] | 5.44
CSc1ccc(NC(=O)Nc2ccc(Cl)c(Cl)c2)cc1 [Compound 149] | 4.86
CC(c1cccc(Oc2ccc(C(C)(C)C)cc2)c1)N(O)C(=S)NCc1ccc(F)cc1 (stereo not shown) [Compound 4] | 4.95
CCCC(c1cccc(Oc2ccc(C(C)(C)C)cc2)c1)N(O)C(=S)NCc1cccc(C)c1 (stereo not shown) [Compound 32] | 5.05
Cc1ccccc1CNC(=S)N(O)C(C)c1cccc(Oc2ccc(C(C)(C)C)cc2)c1 (stereo not shown) [Compound 5] | 4.99

— patent publication US5814646A, “Inhibitors of amyloid beta-protein production” (Eli Lilly and Company, priority 1995, dated 1998)
